Reference: the CheMixHub viscosity set

Assay: xn = mol fraction of the nth substance listed

C=C(C)C(=O)OC + C1CCCCC1
303.15 K, 101 kPa
Details	viscosity [mPa·s]
x1 = 0.1178	0.6811
x1 = 0.2021	0.6254
x1 = 0.3973	0.5474
x1 = 0.4984	0.5261
x1 = 0.5963	0.5188
x1 = 0.804	0.5141
x1 = 0.9019	0.5099

ClCCCCCCCl + C1CCCCC1
viscosity [mPa·s], 101 kPa
Details	x1 = 0.07055	x1 = 0.1468	x1 = 0.2554	x1 = 0.3491	x1 = 0.4438	x1 = 0.5446	x1 = 0.6382	x1 = 0.7449	x1 = 0.8743
308.15 K	0.796	0.835	0.893	0.948	1.022	1.113	1.206	1.322	1.467
313.15 K	0.721	0.759	0.818	0.873	0.947	1.036	1.126	1.246	1.387
318.15 K	0.681	0.711	0.76	0.804	0.865	0.942	1.027	1.133	1.259

C=C(C)C(=O)OC + CC#N
viscosity [mPa·s], 101 kPa
Details	298.15 K	303.15 K	308.15 K	313.15 K	318.15 K
x2 = 0.0688	0.5536	0.5171	0.4878	0.4643	0.4465
x2 = 0.1376	0.5439	0.5091	0.4811	0.4585	0.4413
x2 = 0.1957	0.5346	0.5013	0.4745	0.4526	0.4359
x2 = 0.2716	0.5214	0.4899	0.4643	0.4435	0.4275
x2 = 0.3344	0.5094	0.4795	0.455	0.435	0.4194
x2 = 0.4135	0.4932	0.4651	0.442	0.423	0.4079
x2 = 0.4916	0.4761	0.4498	0.4281	0.41	0.3954
x2 = 0.5649	0.4592	0.4344	0.4138	0.3967	0.3825
x2 = 0.6386	0.4413	0.4183	0.3988	0.3825	0.3687
x2 = 0.7084	0.4238	0.4023	0.3839	0.3683	0.3549
x2 = 0.7927	0.402	0.3823	0.3652	0.3505	0.3375
x2 = 0.855	0.3855	0.3672	0.351	0.3367	0.324
x2 = 0.9073	0.3714	0.3541	0.3387	0.3249	0.3123
x2 = 0.9497	0.3599	0.3435	0.3286	0.3152	0.3028

C[N+](C)(C)CCC[N+]1(C)CCCCC1.N#C[N-]C#N.N#C[N-]C#N + CC#N
viscosity [mPa·s], 100 kPa
Details	x1 = 0.0999	x1 = 0.7001	x1 = 0.7996
298.15 K	–	–	895.3
318.15 K	2.675	163.5	–

C=C(C)C(=O)OC + CC(C)(C)O
viscosity [mPa·s], 101.3 kPa
Details	298.15 K	308.15 K
x1 = 0.0571	3.463	2.088
x1 = 0.1587	2.316	1.51
x1 = 0.256	1.652	1.15
x1 = 0.3589	1.217	0.898
x1 = 0.4561	0.956	0.738
x1 = 0.4983	0.873	0.686
x1 = 0.5567	0.782	0.627
x1 = 0.6571	0.672	0.555
x1 = 0.7563	0.608	0.511
x1 = 0.841	0.58	0.491
x1 = 0.9335	0.573	0.486

C=C(C)C(=O)OC + CC(C)CO
viscosity [mPa·s], 101.3 kPa
Details	298.15 K	308.15 K
x1 = 0.0547	2.74	2.077
x1 = 0.1398	2.067	1.621
x1 = 0.2311	1.576	1.274
x1 = 0.33	1.22	1.012
x1 = 0.4577	0.927	0.788
x1 = 0.5037	0.852	0.73
x1 = 0.5427	0.799	0.687
x1 = 0.6552	0.686	0.595
x1 = 0.7288	0.638	0.553
x1 = 0.8409	0.594	0.512
x1 = 0.9341	0.581	0.495

CCCCOP(=O)(O)OCCCC + CC(C)N
297 K, 101 kPa
Details	viscosity [mPa·s]
x2 = 0.15	80
x2 = 0.3	240
x2 = 0.48	4070
x2 = 0.5	4750
x2 = 0.66	260
x2 = 0.85	100

C=C(C)C(=O)OC + CC(C)O
viscosity [mPa·s], 101.3 kPa
Details	298.15 K	308.15 K
x1 = 0.0556	1.716	1.339
x1 = 0.1557	1.314	1.051
x1 = 0.2605	1.034	0.845
x1 = 0.3541	0.862	0.717
x1 = 0.4318	0.76	0.638
x1 = 0.5041	0.689	0.583
x1 = 0.5537	0.651	0.553
x1 = 0.6557	0.596	0.509
x1 = 0.7561	0.567	0.484
x1 = 0.8542	0.559	0.477
x1 = 0.9512	0.571	0.483

C=C(C)C(=O)OC + CC(C)OC(C)C
viscosity [mPa·s], 101.3 kPa
Details	298.15 K	308.15 K
x1 = 0.0416	0.385	0.291
x1 = 0.1479	0.401	0.309
x1 = 0.2488	0.417	0.326
x1 = 0.3488	0.434	0.344
x1 = 0.4527	0.453	0.364
x1 = 0.4958	0.461	0.372
x1 = 0.5472	0.472	0.383
x1 = 0.6489	0.493	0.404
x1 = 0.7504	0.517	0.427
x1 = 0.8502	0.542	0.451
x1 = 0.944	0.569	0.474

C=C(C)C(=O)OC + CCC(C)O
viscosity [mPa·s], 101.3 kPa
Details	298.15 K	308.15 K
x1 = 0.0597	2.462	2.057
x1 = 0.1551	1.779	1.481
x1 = 0.255	1.32	1.097
x1 = 0.3562	1.022	0.848
x1 = 0.4561	0.83	0.688
x1 = 0.5021	0.766	0.635
x1 = 0.5571	0.704	0.584
x1 = 0.6562	0.626	0.52
x1 = 0.7557	0.581	0.484
x1 = 0.8552	0.564	0.472
x1 = 0.9549	0.572	0.481

Cc1ccc(NC(=O)NC(C)CCCC(C)C)cc1NC(=O)NC(C)CCCC(C)C (centres undefined) + CCCCC
Details	viscosity [mPa·s]
293.15 K, 100 kPa, x1 = 0.0002	461

C=C(C)C(=O)OC + CCCCCC
303.15 K, 101 kPa
Details	viscosity [mPa·s]
x1 = 0.1029	0.2962
x1 = 0.2077	0.3069
x1 = 0.4005	0.3338
x1 = 0.5052	0.3523
x1 = 0.6046	0.3758
x1 = 0.7056	0.4934

CCCCCCCCCCCC(=O)[O-].[Na+] + CCCCCCCC(=O)O
100 kPa, x1 = 0.2
Details	viscosity [mPa·s]
293.15 K	60.29
298.15 K	47.97
303.15 K	38.68
308.15 K	31.58
313.15 K	26.09
318.15 K	21.79
323.15 K	18.38

CCCCCCCCCCCC(=O)[O-].[Na+] + CCCCCCCCCC(=O)O
101 kPa, x1 = 0.2
Details	viscosity [mPa·s]
293.15 K	76.59
298.15 K	60.48
303.15 K	48.43
308.15 K	39.29
313.15 K	32.27
318.15 K	26.79
323.15 K	22.48

C=C(C)C(=O)OC + CCCCCCCO
viscosity [mPa·s], 101.3 kPa
Details	298.15 K	308.15 K
x1 = 0.0526	4.782	3.544
x1 = 0.1258	3.728	2.828
x1 = 0.2484	2.538	1.991
x1 = 0.3455	1.926	1.546
x1 = 0.4471	1.483	1.213
x1 = 0.5009	1.307	1.078
x1 = 0.5615	1.143	0.95
x1 = 0.6456	0.965	0.81
x1 = 0.7444	0.811	0.685
x1 = 0.8476	0.695	0.588
x1 = 0.9438	0.618	0.522

C=C(C)C(=O)OC + CCCCCO
viscosity [mPa·s], 101.3 kPa
Details	298.15 K	308.15 K
x1 = 0.0449	3.018	2.317
x1 = 0.1463	2.195	1.733
x1 = 0.2463	1.658	1.34
x1 = 0.3476	1.29	1.064
x1 = 0.4311	1.077	0.9
x1 = 0.5019	0.941	0.793
x1 = 0.5439	0.876	0.74
x1 = 0.6459	0.753	0.641
x1 = 0.7431	0.674	0.575
x1 = 0.8477	0.619	0.527
x1 = 0.9445	0.591	0.501

CC(=O)Oc1ccccc1 + CCCCCOC(C)=O
Details	viscosity [mPa·s]
298.15 K, 101 kPa, x1 = 0.5	0.9319

COc1ccccc1C + CCCCCOC(C)=O
Details	viscosity [mPa·s]
298.15 K, 101 kPa, x1 = 0.5	0.8659

C=C(C)C(=O)OC + CCCCO
viscosity [mPa·s], 101.3 kPa
Details	298.15 K	308.15 K
x1 = 0.05	2.22	1.726
x1 = 0.1489	1.7	1.355
x1 = 0.2479	1.341	1.092
x1 = 0.3487	1.086	0.9
x1 = 0.4499	0.906	0.761
x1 = 0.5024	0.835	0.705
x1 = 0.5479	0.783	0.664
x1 = 0.6441	0.699	0.596
x1 = 0.7437	0.639	0.546
x1 = 0.8469	0.602	0.513
x1 = 0.9453	0.585	0.496

C=C(C)C(=O)OC + CCCCOCCCC
viscosity [mPa·s], 101.3 kPa
Details	298.15 K	308.15 K
x1 = 0.0446	0.633	0.581
x1 = 0.1479	0.616	0.561
x1 = 0.2442	0.603	0.546
x1 = 0.3388	0.593	0.532
x1 = 0.4495	0.584	0.519
x1 = 0.4924	0.581	0.515
x1 = 0.5489	0.579	0.51
x1 = 0.6504	0.576	0.502
x1 = 0.7489	0.575	0.496
x1 = 0.8501	0.577	0.492
x1 = 0.9428	0.581	0.49
